According to patent publication US20220354844A1, “METHODS OF TREATING METABOLIC DISEASES WITH FUSED BICYCLIC PYRAZOLES” (Belite Bio, Inc, priority 2017, published 2022):
“And” between values parts separate entries of the source, which are not always exact repeats. Equal values may be shown once. Read-outs that look alike come from different tables or passages of the source.

Key:
[1] = Compound 2 single dose rat PK study; format: in vivo, male Sprague Dawley rats; settings: for Vd: read-out: Vss
Procedure: A pharmacokinetic study of Compound 2 following a single intravenous or oral dose administration to male Sprague Dawley rats was conducted, the results of which are found in Table 5 and FIGS. 21-24.

[2] = test system: Subjects with NAFLD or NASH; assay: Treatment of NAFLD and NASH in humans; format: in vivo, human; settings: 50 or 100 mg/day for 6 months
Procedure: Subjects with NAFLD or NASH are treated with doses of either 50 or 100 mg/day of compound 1 or 2 for 6 months. Subjects are permitted their usual other medications (e.g. antidiabetic medications such as metformin or […]) but not glitazones, PPAR agonists, OCA, or similar medications. The subjects are assessed before the study, and at intervals during the study, such as every 4 weeks during the study and 4 weeks after the last dose of compound 1 or 2, for safety and pharmacodynamic evaluations.
MRIs of the subjects' livers are taken every 4 weeks during the study and 4 weeks after completion of compound 1 or 2 dosing, to determine hepatic fat; and liver biopsies are taken before the study (to establish the diagnosis) and 4 weeks after completion of compound 1 or 2 dosing. At each visit, after a 12-hour fast, blood is drawn and urine collected; and a standard metabolic panel, complete blood count, and standard urinalysis are performed. Blood is analyzed for total cholesterol, HDL-C, LDL-C, VLDL-C, TGs, apoB, and liver transaminases. The subjects also maintain health diaries, which are reviewed at each visit.

[3] = male, Sprague Dawley, plasma, iv, 2 mg/kg, single iv dose 2 mg/kg, Mean of the 3 rats
[4] = male, Sprague Dawley, plasma, iv, 2 mg/kg, single iv dose 2 mg/kg, individual rats
[5] = male, Sprague Dawley, plasma, po, 5 mg/kg, single po dose 5 mg/kg, Mean of the 3 rats
[6] = male, Sprague Dawley, plasma, po, 5 mg/kg, single po dose 5 mg/kg, individual rats
[7] = single iv dose 2 mg/kg, individual rats, 2 mg/kg
[8] = single po dose 5 mg/kg, individual rats, 5 mg/kg

CC(=O)N1Cc2[nH]nc(C(=O)N3CCC(c4ccc(F)c(F)c4C(F)(F)F)CC3)c2C1 [Compound 2, 1-(3-(4-(3,4-difluoro-2-(trifluoromethyl)phenyl)piperidine-1-carbonyl)-4,6-dihydropyrrolo[3,4-c]pyrazol-5(1H)-yl)ethan-1-one]
AUC(0-inf) [1, 3]: 5750 ng·h/mL | AUC(0-t) [1, 3]: 5720 ng·h/mL | MRT inf [1, 3]: 2.3 h | MRT last [1, 3]: 2.2 h | clearance [1, 3]: 3.17 mL/min/kg | half-life [1, 3]: 6.6 h | Tmax ([1]; male, Sprague Dawley, plasma, iv, 2 mg/kg, single iv dose 2 mg/kg, Mean of the 3 rats, first plasma collection time or observed time of highest plasma concentration): 0.22 h | Cmax ([1]; male, Sprague Dawley, plasma, iv, 2 mg/kg, single iv dose 2 mg/kg, Mean of the 3 rats, read-out: Cmax): 2840 ng/mL | Vd [1, 3]: 0.436 L/kg | MRT inf [1, 4]: 2.1 h | MRT last [1, 4]: 2 h | half-life [1, 4]: 7.1 h | Cmax ([1]; male, Sprague Dawley, plasma, iv, 2 mg/kg, single iv dose 2 mg/kg, individual rats, read-out: Cmax): 2920 ng/mL | Vd [1, 4]: 0.421 L/kg | AUC(0-inf) [1, 5]: 6410 ng·h/mL | AUC(0-t) [1, 5]: 6370 ng·h/mL | MRT inf [1, 5]: 4.8 h | MRT last [1, 5]: 4.5 h | Tmax [1, 5]: 0.5 h | half-life [1, 5]: 8 h | Cmax ([1]; male, Sprague Dawley, plasma, po, 5 mg/kg, single po dose 5 mg/kg, Mean of the 3 rats, read-out: Cmax): 1600 ng/mL | AUC(0-inf) [1, 6]: 5340 ng·h/mL | AUC(0-t) [1, 6]: 5280 ng·h/mL | MRT inf [1, 6]: 5 h | MRT last [1, 6]: 4.5 h | Tmax [1, 6]: 0.5 h | half-life [1, 6]: 10.9 h | Cmax ([1]; male, Sprague Dawley, plasma, po, 5 mg/kg, single po dose 5 mg/kg, individual rats, read-out: Cmax): 1530 ng/mL | AUCLAST [1, 7]: 5039 ng·h/mL and 8134 ng·h/mL and 3994 ng·h/mL | Cl [1, 7]: 2.05 mL/min/kg | Cmax [1, 7]: 3275 ng/mL and 2320 ng/mL | MRTinf [1, 7]: 2.6 h and 2.3 h | MRTlast [1, 7]: 2.5 h and 2.1 h | Vss [1, 7]: 0.315 L/kg and 0.572 L/kg | t1/2 [1, 7]: 7.0 h and 5.7 h | F ([1]; single po dose 5 mg/kg, Mean of the 3 rats): 44.6% | AUCLAST [1, 8]: 8392 ng·h/mL and 5435 ng·h/mL | AUCinf [1, 8]: 8434 hr · ng/m1 and 5452 hr · ng/m1 | Cmax [1, 8]: 2036 ng/mL and 1240 ng/mL | F [1, 8]: 37.2% and 58.7% and 38.0% | MRTinf [1, 8]: 5.4 h and 4.1 h | MRTlast [1, 8]: 5.1 h and 4.0 h | t1/2 [1, 8]: 7.7 h and 5.5 h | improvement in their disease, as manifested by MRI and liver biopsy [2]: dose-related improvement
